Measured values as given in US20250066290A1, “DHODH INHIBITORS CONTAINING A CARBOXYLIC ACID BIOISOSTERE” (IMMUNIC AG, priority 2021, published 2025).
≈ marks a conversion by molar mass, not a printed value. Read-outs that look alike come from different tables or passages of the source.

Experiments:
[1] = Kinetic aqueous solubility in PBS at pH 7.4; settings: pH 7.4, aqueous buffer, kinetic from dmso stock
[2] = Partition coefficient log D (n-octanol/PBS at pH 7.4); type: physicochemical
Protocol: The total amount of compound was determined as the peak area of the principal peak in a calibration standard (100 μM) containing organic solvent (MeOH/water, 60/40 v/v). The amount of compound in buffer was determined as the combined, volume-corrected and weighted areas of the corresponding peaks in the aqueous phases of three organic-aqueous samples of different composition. An automated weighting system was used to ensure the preferred use of raw data from those samples with well quantifiable peak signals. The amount of compound in organic was calculated by subtraction.
Subsequently, the partition coefficient (log D, n-octanol/PBS at pH 7.4) was calculated as the Log10 of the amount of compound in the organic phase divided by the amount of compound in the aqueous phase (Eurofins Discovery Services Item #417).

[3] = molecular target: N-terminally truncated recombinant hDHODH enzyme (Homo sapiens, UniProt Q02127); test: biochemical; type: biochemical
Summary of the method: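 DCIP reduction followed at 600 nm for 2 min, with 60 μM 2,6-dichloroindophenol, 50 μM decylubiquinone and 100 μM dihydroorotate (reaction started with dihydroorotate). Buffer 50 mM TrisHCl, 150 mM KCl, 0.1% Triton X-100, pH 8.0, 30° C. IC50 from at least six compound concentrations.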

[4] = molecular target: human URAT1 uptake transporter (Homo sapiens (Human), UniProt Q96S37); test: Human URAT1 uptake transporter assay (MDCKII-URAT1-LV, SOLVO); type: cell-based; settings: 10 μM compound, 20 μM uric acid probe substrate
Protocol: In the human URAT1 uptake transporter assay (host cell line: MDCKII), the accumulation of the probe substrate in the presence of a DHODH inhibitor (at a concentration of 10 μM) into cells was measured. The assay was executed at SOLVO with catalogue number MDCKII-URAT1-LV. 20 μM uric acid served as probe substrate. Reference inhibitor was benzbromarone at a concentration of 300 μM, which served as internal control.

[5] = Mouse pharmacokinetics, male and female, cassette dosing; type: in vivo, mice (C57BL/6J); settings: for AUC / Cmax / half-life: C57BL/6J, mouse, in vivo; for AUC: 0 to 24 h; for Cmax: 5 mg/kg oral, 1 mg/kg intravenous cassette; for F: bioavailability
Protocol: The pharmacokinetics of the compounds of the present invention was evaluated in 3 male and 3 female mice (C57BL/6J, 8 week old) after oral or intravenous cassette dosing to assess the oral bioavailability. Dose was 5 mg/kg (oral) and 1 mg/kg (intravenous), application volume was 5 mL/kg (oral) and 0.5 mL/kg (intravenous), vehicle was 5% solutol, 95% NaCl solution (at 0.9% saline concentration) for oral and 5% solutol, 5% ethanol, 90% NaCl solution (at 0.9% saline concentration) for intravenous. At each designated time point (0.5, 1, 2, 4, 8 and 24 h after dosing), 20 μL whole blood were collected from the tail vein into Li-heparin tubes, frozen on dry ice within 1-2 minutes of sampling and stored at −20° C. until processed for LC-MS analysis.

SARS-CoV-2 = SARS-CoV-2 viral replication (YFP) assay; type: cell-based; settings: Severe acute respiratory syndrome coronavirus 2, read-out: EC50 range
[6] = Cytotoxicity in human rhinovirus test
[7] = A-B and B-A permeability (Caco-2, pH 7.4/7.4); type: in vitro ADME, human; settings: human; for recovery at 10 μM: Caco-2, Caco-2, 10 μM
Description: (§1) The Caco-2 cell line is a human colon adeno-carcinoma cell line that differentiates in culture and resembles the epithelial lining of the human small intestine. […]

human rhinovirus HRV-14 = test: Antiviral activity on human rhinovirus; type: cell-based; settings: Rhinovirus B, HRV14
in vitro [8] = test: in vitro
[9] = pH 7.4
Caco-2 monolayer = test: A-B and B-A permeability (Caco-2, pH 7.4/7.4); type: in vitro ADME, human; settings: Caco-2, pH 7.4
Description: as §1

SARS-CoV-2 d6-YFP = test: Combinatorial drug assessment with EIDD-1931 by viral replication inhibition assay; type: cell-based
[10] = high vidofludimus doses; cited from earlier work
RSV-A2 = test: Antiviral activity on RSV-A2 in Hep-2 cells; settings: human respiratory syncytial virus, HEp-2, 48 h, read-out: RSV-A2 IC50
RSV-B = test: Antiviral activity on RSV-B in Hep-2 cells; type: cell-based; settings: human respiratory syncytial virus, 48 h, two days after infection
Description: (§2) The following results were obtained:

[11] = Mouse pharmacokinetics, female, deuteration matched pair analysis; type: in vivo, mice (C57BL/6J)
Protocol: In another matched pair analysis the benefit of deuteration of the N-methoxyacetamide moiety was tested: the pharmacokinetic properties of the compounds were evaluated in 3 female mice (C57BL/6J, 8 week old) after oral or intravenous cassette dosing to assess the oral bioavailability. Dose was 5 mg/kg (oral) and 1 mg/kg (intravenous), application volume was 5 mL/kg (oral) and 2 mL/kg (intravenous), vehicle was 5% solutol, 95% NaCl solution (at 0.9% saline concentration) for oral and 5% solutol, 5% ethanol, 90% NaCl solution (at 0.9% saline concentration) for intravenous application. At each designated time point (0.25, 0.5, 1, 2, 4 and 8 h after dosing for oral; 0.083, 0.25, 0.5, 1, 4 and 8 h after dosing for intravenous), 20 μL whole blood were collected from the tail vein into Li-heparin tubes, frozen on dry ice within 1-2 minutes of sampling and stored at −20° C. until processed for LC-MS analysis.

in vitro [12] = type: cell-based; settings: human
Description: as §2

[13] = Metabolic stability in rat liver microsomes; settings: SD
Description: (§3) The metabolism was monitored by HPLC-MS/MS. Verapamil served as positive control.

[14] = system: SARS-CoV-2 reporter virus d6-YFP (WT); test: microbe, parasite or virus in culture; type: cell-based; settings: Severe acute respiratory syndrome coronavirus 2, Caco-2
[15] = Metabolic stability in human liver microsomes
Description: as §3

RSV-Long = test: Antiviral activity on RSV-Long in Hep-2 cells; type: cell-based; settings: human respiratory syncytial virus, 48 h, two days after infection
Description: as §2

[16] = n-octanol/PBS at pH 7.4, read-out: logD
[17] = human DHODH assay, read-out: IC50 range

Chain of N-terminally truncated recombinant hDHODH enzyme (Q02127 whole entry, looked up, the tested form may be a part): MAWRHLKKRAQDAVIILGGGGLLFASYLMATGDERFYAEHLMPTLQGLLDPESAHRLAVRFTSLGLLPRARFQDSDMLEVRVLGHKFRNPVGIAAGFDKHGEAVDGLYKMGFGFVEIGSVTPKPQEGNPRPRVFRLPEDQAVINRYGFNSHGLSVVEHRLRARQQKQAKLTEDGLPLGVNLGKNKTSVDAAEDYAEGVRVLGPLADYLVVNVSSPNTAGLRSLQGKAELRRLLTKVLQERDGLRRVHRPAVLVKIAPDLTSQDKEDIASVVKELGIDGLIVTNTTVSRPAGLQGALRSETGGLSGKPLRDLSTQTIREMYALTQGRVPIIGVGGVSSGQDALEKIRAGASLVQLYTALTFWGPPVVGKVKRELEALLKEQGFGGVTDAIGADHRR
Chain of human URAT1 uptake transporter (Q96S37 whole entry): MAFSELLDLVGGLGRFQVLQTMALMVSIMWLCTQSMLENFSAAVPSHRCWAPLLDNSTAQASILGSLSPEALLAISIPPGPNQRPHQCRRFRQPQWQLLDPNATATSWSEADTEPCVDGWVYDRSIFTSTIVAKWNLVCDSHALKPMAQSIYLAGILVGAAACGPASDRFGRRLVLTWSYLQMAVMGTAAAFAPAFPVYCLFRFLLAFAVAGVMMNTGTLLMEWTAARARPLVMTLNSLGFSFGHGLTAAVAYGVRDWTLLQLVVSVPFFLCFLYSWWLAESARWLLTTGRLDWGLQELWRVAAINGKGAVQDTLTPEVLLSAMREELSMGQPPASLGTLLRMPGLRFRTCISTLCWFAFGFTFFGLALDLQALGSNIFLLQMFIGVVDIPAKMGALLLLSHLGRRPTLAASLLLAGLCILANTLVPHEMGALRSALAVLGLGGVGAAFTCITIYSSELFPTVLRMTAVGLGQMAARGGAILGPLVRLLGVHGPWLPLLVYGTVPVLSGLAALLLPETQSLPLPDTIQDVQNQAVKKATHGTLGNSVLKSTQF

SMILES | solubility [1] | IC50 [3, 17] | human URAT1 uptake transporter stimulation @ 10 μM [4] | AUC ([5]; female mice) | Cmax ([5]; female mice) | AUC ([5]; male mice) | Cmax ([5]; male mice) | F ([5]; female mice) | half-life ([5]; female) | F ([5]; male mice) | half-life ([5]; male) | EC50 (SARS-CoV-2) | also measured
[2H]C([2H])([2H])Oc1cccc(-c2cc(F)c(NC(=O)C3=C(C(=O)NS(N)(=O)=O)CCC3)c(F)c2)c1 [Example 2/1] | 235 µM (≈ 107 µg/mL) | < 100 nM | 22% | 8610 ng·h/mL | 2280 ng/mL | 3070 ng·h/mL | 1500 ng/mL | ♀ 144% | 2.4 h | ♂ 60% | 3.1 h | > 50000 nM | logD [2, 16]: 0.5
[2H]C([2H])([2H])Oc1cccc(-c2cc(F)c(NC(=O)C3=C(C(=O)NOC)CCC3)c(F)c2)c1 [Example 4] |  |  | 26% | 1210 ng·h/mL | 690 ng/mL | 1780 ng·h/mL | 1110 ng/mL | ♀ 87% | 1.3 h | ♂ 63% | 1.1 h | < 10000 nM | CC50 [6]: > 25000 nM; recovery at 10 μM ([7]; A-B direction, read-out: recovery (A-B)): 60%; recovery at 10 μM ([7]; B-A direction, read-out: recovery (B-A)): 52%; Papp A→B at 10 μM ([7]; Caco-2, 10 μM, pH 7.4/7.4): 1.6 ×10⁻⁶ cm/s; Papp B→A at 10 μM ([7]; Caco-2, 10 μM, pH 7.4/7.4): 0.26 ×10⁻⁶ cm/s; EC50 (human rhinovirus HRV-14): 2200 nM
CCOC(=O)c1ccc(OCCC2CCN(c3ccc(C)nn3)CC2)cc1 [pirodavir] |  |  |  |  |  |  |  |  |  |  |  |  | CC50 (in vitro [8]): 4500 nM; EC50 (human rhinovirus HRV-14; HRV-14, read-out: EC50): 0.3 nM
[2H]C([2H])([2H])Oc1cccc(-c2cc(F)c(NC(=O)C3=C(C(=O)NOC)CCC3)c(F)c2)c1 [Comparative Example C1, reference compound] |  |  | 173% |  |  |  |  |  |  |  |  |  | solubility [9]: 220 µM (≈ 89.2 µg/mL); logD ([2]; pH 7.4): 1.0; A-B permeability (Caco-2 monolayer): 0.068 ×10⁻⁶ cm/s; B-A permeability (Caco-2 monolayer): 0.88 ×10⁻⁶ cm/s
CS(=O)(=O)NC(=O)C1=C(C(=O)Nc2c(F)c(F)c(-c3cccc(OC(F)(F)F)c3)c(F)c2F)CCC1 [Example 1, N^1-(Methylsulfonyl)-N^2-(2,3,5,6-tetrafluoro-3′-(trifluoromethoxy)-[1,1′-biphenyl]-4-yl)cyclopent-1-ene-1,2-dicarboxamide] | 237 µM (≈ 128 µg/mL) | < 100 nM | 28% | 7350 ng·h/mL | 1320 ng/mL | 3200 ng·h/mL | 754 ng/mL | ♀ 217% | 2.8 h | ♂ 49% | 2.9 h | 10000 to 25000 nM | antiviral effect in combination with EIDD-1931 (SARS-CoV-2 d6-YFP): synergistic antiviral effect; antiviral effect in combination with EIDD-1931 (SARS-CoV-2 d6-YFP; listed as Compound 1): synergistic antiviral effects
COc1cccc(-c2ccc(NC(=O)C3=C(C(=O)O)CCC3)c(F)c2)c1 [vidofludimus, 2-((3-fluoro-3′-methoxy-[1,1′-biphenyl]-4-yl)carbamoyl)cyclopent-1-ene-1-carboxylic acid] |  |  |  |  |  |  |  |  |  |  |  |  | blood uric acid levels [10]: decrease; urine red blood cell count [10]: increase
O=C(Nc1c(F)c(F)c(-c2cccc(OC(F)(F)F)c2)c(F)c1F)C1=C(c2nn[nH]n2)CCC1 [Example 3, N-(2,3,5,6-Tetrafluoro-3′-(trifluoromethoxy)-[1,1′-biphenyl]-4-yl)-2-(2H-tetrazol-5-yl)cyclopent-1-ene-1-carboxamide] | 207 µM (≈ 101 µg/mL) |  | <20% |  |  |  |  |  |  |  |  | < 10000 nM | IC50 [3]: 100 to 1000 nM
[2H]C([2H])([2H])Oc1cccc(-c2cc(F)c(NC(=O)c3ccsc3C(=O)NOC)c(F)c2)c1 [Example 9, N3-(3,5-Difluoro-3′-(methoxy-d3)-[1,1′-biphenyl]-4-yl)-N2-methoxythiophene-2,3-di-carboxamide] |  | < 100 nM |  |  |  |  |  |  |  |  |  | < 1000 nM | IC50 (RSV-A2): < 100 nM; IC50 (RSV-B): < 100 nM; AUC(0-t) ([11]; C57BL/6J, mouse, in vivo, female mice, 0 to 8 h): 12300 ng·h/mL; Cmax ([11]; C57BL/6J, mouse, in vivo, female mice, 5 mg/kg oral, 1 mg/kg intravenous cassette): 3000 ng/mL; F ([11]; female mice, bioavailability): 49%; half-life ([11]; female, C57BL/6J, mouse, in vivo): 2.6 h; CC50 at 2 days (in vitro [12]): 45300 nM; CC50 [6]: > 25000 nM; microsomal CLint ([13]; female): 63.8 µL/min/mg; microsomal CLint ([13]; male): 183 µL/min/mg; EC50 [14]: 72 nM; microsomal CLint ([15]; female): 55.5 µL/min/mg; microsomal CLint ([15]; male): 76.5 µL/min/mg; EC50 (human rhinovirus HRV-14; HRV-14, read-out: EC50): 14 nM; IC50 (RSV-Long): < 100 nM
[2H]C([2H])([2H])Oc1cccc(-c2cc(F)c(NC(=O)C3=C(C(=O)NS(C)(=O)=O)CCC3)c(F)c2)c1 [Example 1/1] | 227 µM (≈ 103 µg/mL) |  | <20% |  |  |  |  |  |  |  |  | 25000 to 50000 nM | logD [2, 16]: 0.9
